Assay results as given in patent publication US7169942B2, “Cannabinoid derivatives, methods of making, and use thereof” (priority 2003, dated 2007).
Read-outs that look alike come from different tables or passages of the source.

What was measured:
[1] = target: T1, human CB2 receptor (Homo sapiens, UniProt P34972); experiment: CB2 receptor binding assay, displacement of [3H]CP 55,940
T1 construct: purchased Perkin-Elmer Life Sciences, Inc. Lot #1930

[2] = target: T2, human CB1 receptor (Homo sapiens, UniProt P21554); experiment: biochemical; assay type: binding
T2 construct: purchased Perkin-Elmer Life Sciences, Inc. Lot #1929; host or cells: HEK293 (HEK293 EBNA according to b236 for compounds 33-36)

[3] = system: rat hemorrhagic shock model; experiment: Rat hemorrhagic shock model; conditions: FIG. 22
[4] = target: CB1 (Rattus norvegicus, UniProt P20272); conditions: literature value, highly potent CB1 analogs; read-out: Ki of reference cannabinoid; cited from earlier work
[5] = system: C6 glioma cells; experiment: Cytotoxicity on C6 glioma cells (MTS, CellTiter 96); conditions: concentrations of 8 μM
[6] = Table 3, human receptor in HEK293 EBNA cell membranes, three experiments in duplicate, SEM in parentheses
[7] = Table 1, affinity ratio of Ki values
[8] = Table 1, membranes of HEK293 cells with human CB1, SEM in parentheses, n≧2 in triplicate, read-out: CB1 Ki
[9] = Table 3, human receptor in HEK293 EBNA cell membranes, three experiments in duplicate, SEM in parentheses, read-out: CB2 Ki
[10] = Table 3, human receptor in HEK293 EBNA cell membranes, three experiments in duplicate, SEM in parentheses, read-out: CB1 Ki
[11] = Table 8, SEM in parentheses, n≧2 in triplicate
[12] = Table 8, SEM in parentheses, n≧2 in triplicate, read-out: CB1 Ki

T1 sequence (P34972 whole entry): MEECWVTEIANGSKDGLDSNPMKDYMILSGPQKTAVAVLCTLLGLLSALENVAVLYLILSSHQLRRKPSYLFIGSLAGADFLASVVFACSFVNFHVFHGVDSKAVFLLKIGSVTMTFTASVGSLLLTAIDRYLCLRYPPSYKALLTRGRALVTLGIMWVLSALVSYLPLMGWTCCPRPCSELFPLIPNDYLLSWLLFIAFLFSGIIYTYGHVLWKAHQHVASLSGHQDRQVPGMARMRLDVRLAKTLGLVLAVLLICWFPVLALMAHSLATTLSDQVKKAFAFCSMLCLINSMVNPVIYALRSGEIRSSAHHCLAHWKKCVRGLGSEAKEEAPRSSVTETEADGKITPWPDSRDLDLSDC
T2 sequence (P21554 whole entry): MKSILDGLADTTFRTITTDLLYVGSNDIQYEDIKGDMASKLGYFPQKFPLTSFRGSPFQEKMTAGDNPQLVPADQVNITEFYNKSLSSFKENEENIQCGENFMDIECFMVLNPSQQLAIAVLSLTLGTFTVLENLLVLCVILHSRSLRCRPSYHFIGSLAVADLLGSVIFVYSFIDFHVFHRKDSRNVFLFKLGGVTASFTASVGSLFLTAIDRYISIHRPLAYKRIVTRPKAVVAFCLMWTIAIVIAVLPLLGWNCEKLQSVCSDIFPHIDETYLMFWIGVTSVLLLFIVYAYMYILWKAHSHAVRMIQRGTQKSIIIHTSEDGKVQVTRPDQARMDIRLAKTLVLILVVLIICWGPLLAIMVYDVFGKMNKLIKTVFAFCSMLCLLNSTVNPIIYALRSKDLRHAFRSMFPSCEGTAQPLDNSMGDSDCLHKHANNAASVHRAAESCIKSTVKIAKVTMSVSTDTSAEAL
Sequence of CB1 (P20272 whole entry): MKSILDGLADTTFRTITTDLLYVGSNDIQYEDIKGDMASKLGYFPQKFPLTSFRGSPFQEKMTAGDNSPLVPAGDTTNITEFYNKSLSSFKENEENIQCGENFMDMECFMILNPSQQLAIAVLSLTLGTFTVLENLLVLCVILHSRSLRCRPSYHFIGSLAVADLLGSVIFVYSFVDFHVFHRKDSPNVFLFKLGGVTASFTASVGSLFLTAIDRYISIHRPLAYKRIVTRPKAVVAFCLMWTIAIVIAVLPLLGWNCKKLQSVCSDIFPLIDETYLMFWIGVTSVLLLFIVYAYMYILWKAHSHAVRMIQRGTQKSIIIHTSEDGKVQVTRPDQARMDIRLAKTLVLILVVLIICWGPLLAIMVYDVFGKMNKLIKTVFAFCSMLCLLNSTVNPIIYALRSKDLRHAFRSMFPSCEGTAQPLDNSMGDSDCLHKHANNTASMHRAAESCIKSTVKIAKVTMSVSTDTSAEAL

## CCCCC(=O)c1cc(OC)cc(OC)c1 [Compound 5, 1-(3,5-Dimethoxy-phenyl)-pentan-1-one]
[1]; [6]
  CB2 Ki: significantly reduced binding affinities
[2]; [6]
  CB1 Ki: significantly reduced binding affinities

## CCCCC1(c2cc(O)c3c(c2)OC(C)(C)C2CC=C(C)CC32)SCCS1 (centres unmarked) [Compound 23, 3-(2-Butyl-[1,3]dithiolan-2-yl)-6,6,9-trimethyl-6a,7,10,10a-tetrahydro-6H-benzo[c]chromen-1-ol]
[1]
  Ki: 0.58 nM
  fold increase in binding to the CB2 receptor relative to Δ8-THC: 47 fold
  fold increased affinity for the CB2 receptor relative to the carbon equivalent 24: 11 fold
[1]; Table 1, membranes of CHO-K1 cells with human CB2, SEM in parentheses, n≧2 in triplicate
  CB2 Ki: sub-nanomolar
[2]
  fold increase in binding to the CB1 receptor relative to Δ8-THC: 33 fold
  fold increased affinity for the CB1 receptor relative to the carbon equivalent 24: 4.7 fold
[2]; [7]
  Ratio CB1/CB2: 1.47
[2]; Table 1, membranes of HEK293 cells with human CB1, SEM in parentheses, n≧2 in triplicate
  CB1 Ki: sub-nanomolar
[2]; [8]
  Ki: 0.85 nM

## CC1=CCC2C(C1)c1c(O)cc(C3(C4CCCC4)SCCS3)cc1OC2(C)C (centres unmarked) [Compound 24, 3-(2-Cyclopentyl-[1,3]dithiolan-2-yl)-6,6,9-trimethyl-6a,7,10,10a-tetrahydro-6H-benzo[c]chromen-1-ol]
[1]
  Ki: 2.74 nM
  fold decrease in affinity at the CB2 receptor (dithiolane ring): 7 fold
[2]; [7]
  Ratio CB1/CB2: 3.46
[2]; [8]
  Ki: 9.49 nM

## CC1=CCC2C(C1)c1c(O)cc(C3(C4CCCCC4)SCCS3)cc1OC2(C)C (centres unmarked) [Compound 25, 3-(2-Cyclohexyl-[1,3]dithiolan-2-yl)-6,6,9-trimethyl-6a,7,10,10a-tetrahydro-6H-benzo[c]chromen-1-ol]
[3]; 12 mg/kg in combination with NS-398 2 mg/kg
  change in mean blood pressure versus time relative to positive control Δ8-THC and NS-398: improved behavior relative to the positive control
[1]
  Ki: 1.05 nM
[2]
  Ratio CB1/CB2: 1.77
[2]; [8]
  Ki: 1.86 nM

## CC1=CCC2C(C1)c1c(O)cc(C3(C4CCCCCC4)SCCS3)cc1OC2(C)C (centres unmarked) [Compound 26, 3-(2-Cycloheptyl-[1,3]dithiolan-2-yl)-6,6,9-trimethyl-6a,7,10,10a-tetrahydro-6H-benzo[c] chromen-1-ol]
[1]
  Ki: 6.62 nM
  fold decrease in affinity at the CB2 receptor (dithiolane ring): 33 fold
[2]; [7]
  Ratio CB1/CB2: 0.27
[2]; [8]
  Ki: 1.76 nM

## CC1=CCC2C(C1)c1c(O)cc(C(C)(C)C3CCCC3)cc1OC2(C)C (centres unmarked) [Compound 27, 3-(1-Cyclopentyl-1-methyl-ethyl)-6,6,9-trimethyl-6a,7,10,1a-tetrahydro-6H-benzo[c]chromen-1-ol]
[1]; Table 1, membranes of CHO-K1 cells with human CB2, SEM in parentheses, n≧2 in triplicate, read-out: CB2 Ki
  Ki: 0.39 nM
[2]; [7]
  Ratio CB1/CB2: 0.84
[2]; read-out: CB1 Ki
  Ki: 0.34 nM

## CC1=CCC2C(C1)c1c(O)cc(C(C)(C)C3CCCCC3)cc1OC2(C)C (centres unmarked) [Compound 28, 3-(1-Cyclohexyl-1-methyl-ethyl)-6,6,9-trimethyl-6a,7,10,10a-tetrahydro-6H-benzo[c]chromen-1-ol]
[3]; 12 mg/kg with 2 mg/kg NS-398 (COX-2 inhibitor)
  rapid increase in ΔMAP, level reached relative to basal MAP: ≤ 85%
[1]
  Ki: 0.65 nM
[2]; [7]
  Ratio CB1/CB2: 0.87
[2]; [8]
  Ki: 0.57 nM
[2]; Table 3, ratio of Ki values
  Ratio CB1/CB2: 0.87
[2]; Table 3, ratio of Ki values, listed as 32
  Ratio CB1/CB2: binds both the subtypes with almost equal affinity

## CC1=CCC2C(C1)c1c(O)cc(C(C)(C)C3CCCCCC3)cc1OC2(C)C (centres unmarked) [Compound 29, 3-(1-Cycloheptyl-1-methyl-ethyl)-6,6,9-trimethyl-6a,7,10,10a-tetrahydro-6H-benzo[c]chromen-1-ol]
[1]
  Ki: 0.22 nM
[2]; [8]
  Ki: 0.94 nM

## CC1=CCC2C(C1)c1c(O)cc(C3(c4ccccc4)SCCS3)cc1OC2(C)C (centres unmarked) [Compound 34, dithiolanyl-phenyl-Δ^8-THC]
[1]; [9]
  Ki: 17.6 nM
[2]
  fold decrease in affinity relative to the 1′-cyclohexyl congener: 10 fold
[2]; [10]
  Ki: 17.3 nM

## CC1=CCC2C(C1)c1c(O)cc(Cc3ccccc3)cc1OC2(C)C (centres unmarked) [Compound 35, methylene-phenyl-Δ^8-THC]
[1]; [9]
  Ki: 85.9 nM
[2]; [10]
  Ki: 67.6 nM
[2]; Table 3, ratio of Ki values
  Ratio CB1/CB2: 0.78

## CC1=CC[C@@H]2[C@@H](C1)c1c(O)cc(C(=O)c3ccccc3)cc1OC2(C)C [Compound 36, methanone-phenyl-Δ^8-THC]
[1]; [9]
  Ki: 23.6 nM
[2]
  Ratio CB1/CB2: 12.6
  fold decrease in binding affinity for the CB1 receptor compared to Δ8-THC: ~10 fold
[2]; [10]
  Ki: 297 nM

## CC1=CCC2C(C1)c1c(O)cc(C(C)(C)c3ccc(C)cc3)cc1OC2(C)C (centres unmarked) [Compound 50, 6,6,9-Trimethyl-3-(1-methyl-1-p-tolyl-ethyl)-6a,7,10,10a-tetrahydro-6H-benzo[c]chromen-1-ol]
[1]
  Ki: 0.88 nM
[1]; [11]
  CB2 Ki: sub-nanomolar
[2]; [12]
  Ki: 2.13 nM
[2]; Table 8, ratio of Ki values
  Ratio CB1/CB2: 3.56

## CC1=CCC2C(C1)c1c(O)cc(C(C)(C)c3cccc(C)c3)cc1OC2(C)C (centres unmarked) [Compound 51, 6,6,9-Trimethyl-3-(1-methyl-1-m-tolyl-ethyl)-6a,7,10,10a-tetrahydro-6H-benzo[c]chromen-1-ol]
[1]
  Ki: 1.13 nM
[2]; [12]
  Ki: 2.53 nM
[2]; Table 8, ratio of Ki values
  Ratio CB1/CB2: 2.24

## CC1=CCC2C(C1)c1c(O)cc(C(C)(C)c3ccc(Cl)cc3)cc1OC2(C)C (centres unmarked) [Compound 52, 3-[1-(4-Chloro-phenyl)-1-methyl-ethyl]-6,6,9-trimethyl-6a,7,10,10a-tetrahydro-6H-benzo[c]chromen-1-ol]
[1]
  Ki: 12.4 nM
[2]; [12]
  Ki: 76.1 nM

## CC1=CCC2C(C1)c1c(O)cc(C(C)(C)c3cccc(Cl)c3)cc1OC2(C)C (centres unmarked) [Compound 53, 3-[1-(3-Chloro-phenyl)-1-methyl-ethyl]-6,6,9-trimethyl-6a,7,10,10a-tetrahydro-6H-benzo[c]chromen-1-ol]
[1]
  Ki: 1.68 nM
[2]; [12]
  Ki: 18.8 nM

## CC1=CCC2C(C1)c1c(O)cc(C(C)(C)c3ccc(F)cc3)cc1OC2(C)C (centres unmarked) [Compound 54, 3-[1-(4-Fluoro-phenyl)-1-methyl-ethyl]-6,6,9-trimethyl-6a,7,10,10a-tetrahydro-6H-benzo[c]chromen-1-ol]
[1]
  Ki: 3.54 nM
[1]; [11]
  CB2 Ki: did show enhanced affinity for the CB-2 receptor
[2]
  Ratio CB1/CB2: 0.79
[2]; [12]
  Ki: 2.8 nM

## CC1=CCC2C(C1)c1c(O)cc(C(C)(C)c3cccs3)cc1OC2(C)C (centres unmarked) [Compound 55, 6,6,9-Trimethyl-3-(1-methyl-1-thiophen-2-yl-ethyl)-6a,7,10,10a-tetrahydro-6H-benzo[c]chromen-1-ol]
[1]
  Ki: 0.27 nM
[1]; [11]
  CB2 Ki: sub-nanomolar
[2]
  Ki: 1.08 nM
  Ratio CB1/CB2: 4.00

## CCCCCCC(C)(C)c1cc(O)c2c(c1)OC(C)(C)C1CC=C(C)CC21 (centres unmarked) [DMHT, 1′,1′-dimethylheptyl-Δ^8-THC]
[4]
  Ki: 0.77 nM

## CCCCCCC1(c2cc(O)c3c(c2)OC(C)(C)C2CC=C(C)CC32)SCCS1 (centres unmarked) [DTHT, 1′,1′-dithiolaneheptyl-Δ^8-THC]
[4]
  Ki: 0.32 nM

## gem-dimethyl-phenyl-Δ^8-THC [Compound 33]
[5]
  time to complete cell death: ≤ 5 h
[1]; CB2 over CB1
  fold selectivity for the CB2 receptor: 13 fold
[1]; [9]
  Ki: 0.91 nM
[1]; Table 8, SEM in parentheses, n≧2 in triplicate, read-out: CB2 Ki
  Ki: 0.91 nM
[2]
  Ratio CB1/CB2: 13.5
[2]; read-out: CB1 Ki
  Ki: 12.3 nM
